Earlier results on 1 compound are cited in article PMC7960626, “Phase I study assessing the mass balance, pharmacokinetics, and excretion of [^14C]-pevonedistat, a NEDD8-activating enzyme inhibitor in patients with advanced solid tumors” (Investigational New Drugs, 2020).

The structures appear in SMILES notation. Like-named read-outs stand apart in the source and are kept apart here.

The subject of the data set is advanced solid tumors. Further details: method as in PMID 29781056. The note with it: cited from earlier work.
Setting [1] is: in combination with carboplatin plus paclitaxel.

Consider `NS(=O)(=O)OC[C@@H]1C[C@@H](n2ccc3c(N[C@H]4CCc5ccccc54)ncnc32)C[C@@H]1O` [Pevonedistat], for which the “maximum tolerated dose (MTD)” value is listed as 20 mg/m^2 under setting [1] and 25 mg/m^2 (in combination with docetaxel). For the same compound, the “overall response rate [ORR]” value is, setting by setting: under setting [1], 35%; (in combination with docetaxel) 16%.
